Assay results as given in paper PMC9138991, “Effect of Trimethine Cyanine Dye- and Folate-Conjugation on the In Vitro Biological Activity of Proapoptotic Peptides” (Biomolecules, 2022).
Where a SMILES comes first, the peptide text is derived from it. Side-chain parts run from the residue outwards. [ ]: non-standard residue; d: D form. The star is where a group is joined. X1 = CN1/C(=C\C=C\C2=[N+](CCCCCC(=O)*)c3ccccc3C2(C)C)C(C)(C)c2ccccc21; Pteroyl = Nc1nc2ncc(CNc3ccc(C(=O)*)cc3)nc2c(=O)[nH]1; Cha = N[C@@H](CC1CCCCC1)C(=O)O; dCha = N[C@H](CC1CCCCC1)C(=O)O

Legend:
Assay type in all cases: cell-based, human
KB cells = experiment: Cell viability assay (CellTiter-Blue), KB cells; settings: 7 × 10^3 cells per well, folic acid-depleted RPMI-1640 + 10% FBS, 1% DMSO, 24 h at 37 °C, then CellTiter-Blue 4 h, three biological replicates fitted in Origin, standard error in brackets
Method: (§1) KB and MCF7 cells were kindly gifted by Prof. Arwyn T. Jones (Cardiff University), HEK293 cells were purchased from Public Health England, and SK-OV-3 cells were purchased from National Collection of Authenticated Cell Cultures (https://cell-bank.org.cn/). Cells were routinely tested for mycoplasma infection. KB and SK-OV-3 cells were maintained in T75 flasks at 37 °C in a 5% CO2 atmosphere in folic acid-depleted Roswell Park Memorial Institute (RPMI)-1640 medium supplemented with 10% (v/v) fetal bovine serum (FBS). MCF7 and HEK293 cells were maintained in T75 flasks at 37 °C in a 5% CO2 atmosphere in Dulbecco’s Modified Eagle’s medium (DMEM) supplemented with 10% (v/v) FBS. Cells were maintained at a sub-confluent monolayer and split at 80–85% confluency. For splitting, cells were washed with PBS, trypsinized in 1 mL of trypsin, and 200 µL of the 1000 µL trypsin cell suspension was re-suspended in 12 mL fresh DMEM containing 10% (v/v) FBS in a new T75 flask. KB and SK-OV-3 cells were used for biological experiments after being maintained for at least 10 days in folic acid-depleted RPMI-1640 medium.
(§2) SK-OV-3, MCF7, and HEK293 cells were seeded at a density of 2 × 10^4 cells per well in a Nunc™ MicroWell™ 96-well plate and grown at 37 °C in a 5% CO2 atmosphere in DMEM supplemented with 10% (v/v) FBS for 24 h. KB cells were seeded at a density of 7 × 10^3 cells per well in a 96-well plate and grown at 37 °C in a 5% CO2 atmosphere in folic acid-depleted RPMI-1640 medium supplemented with 10% (v/v) FBS for 24 h. Stock solutions of compounds 2–6 and 11–13 were obtained by dissolving the compounds in sterile deionized water. Compounds 1, and 7–10 were dissolved in pure DMSO. The stock solutions were diluted into the proper medium (according to the cell line tested) supplemented with 10% FBS to the appropriate concentration, and cells in each well were incubated with 100 µL of the solution. The solutions in each well were then adjusted to a concentration of 1% (v/v) DMSO. After 24 h at 37 °C, 20 µL of CellTiter-Blue™ was added to each well. The plate was incubated for another 4 h at 37 °C before analysis on a Perkin Elmer Victor X plate reader (excitation 531 nm; emission 595 nm). Each data point was calculated from a minimum of nine values resulting from three biological replicates (i.e., cells split from three different passages); each biological replicate is calculated from three technical replicates (i.e., cells split from the same passage). Value from media-only with CellTiter-Blue™ was set at 0% viability. This value was then subtracted from the values from cell-only (i.e., non-treated) wells with CellTiter-Blue™ in each biological replicate and set as 100% viability. For treatments of Cy3-containing compounds, blanks were generated with cell-free wells containing the compounds incubated for 24 h before addition of CellTiter-Blue™. The fluorescent reading for these wells was deducted from the treatment readings. Dose-response fitting curves were generated using Origin, version 2019b, OriginLab Corporation, Northampton, MA, USA (Figures S21–S24, Supplementary Materials).
(§3) Comparison of cytotoxicity fitting curves was achieved by applying the extra sum-of-squares F test, performed using GraphPad Prism version 9 for Windows, GraphPad Software, La Jolla, California, USA (https://www.graphpad.com/). […] Statistical analysis on the flow cytometry data was achieved by applying the unpaired two-tailed t-test test, performed using GraphPad Prism version 9 for Windows, GraphPad Software, La Jolla California USA, USA (https://www.graphpad.com/).
(§4) Cytotoxicity of 1–13 was evaluated using the CellTiter-Blue assay on KB, MCF7, SK-OV-3, and HEK293 cells. KB cells are derived from human cervical cancer, while SK-OV-3 cells are derived from human ovarian cancer. […] This feature is of particular relevance in anticancer applications, as it can be exploited for selective targeting and delivery. […]

SK-OV-3 cells = experiment: Cell viability assay (CellTiter-Blue), SK-OV-3 cells; settings: 2 × 10^4 cells per well, medium + 10% FBS, 1% DMSO, 24 h at 37 °C, then CellTiter-Blue 4 h, three biological replicates fitted in Origin, standard error in brackets
Method: as §1, §2, §3, §4

MCF7 cells = experiment: Cell viability assay (CellTiter-Blue), MCF7 cells; settings: for EC50: MCF7 cells, 2 × 10^4 cells per well, DMEM + 10% FBS, 1% DMSO, 24 h at 37 °C, then CellTiter-Blue 4 h, three biological replicates fitted in Origin, standard error in brackets
Method: as §1, §2, §3, §4

HEK293 cells = experiment: Cell viability assay (CellTiter-Blue), HEK293 cells; settings: 2 × 10^4 cells per well, DMEM + 10% FBS, 1% DMSO, 24 h at 37 °C, then CellTiter-Blue 4 h, three biological replicates fitted in Origin, standard error in brackets
Method: as §1, §2, §3, §4

[1] = test system: KB, MCF7, SK-OV-3, and HEK293 cells; experiment: Cell viability assay (CellTiter-Blue), statements over all tested cell lines; settings: for EC50 / Potency (cytotoxicity) in the tested cell lines, in words: KB, SK-OV-3, MCF7 and HEK293 cells, CellTiter-Blue; for EC50: 24 h; for Potency (cytotoxicity) in the tested cell lines, in words: extra sum-of-squares F test
Method: as §2, §3
Cytotoxicity of 1–13 was evaluated using the CellTiter-Blue assay on KB, MCF7, SK-OV-3, and HEK293 cells. KB cells are derived from human cervical cancer, while SK-OV-3 cells are derived from human ovarian cancer. […] This feature is of particular relevance in anticancer applications, as it can be exploited for selective targeting and delivery. MCF7 is a cell line derived from human breast cancer with low levels of folate receptor α [27]. Therefore, it can serve as the negative control for folate receptor α mediated tumor-targeted drug delivery systems. HEK293 is a non-cancer cell line and was chosen to evaluate the specificity of the tested compounds toward cancer cells.

[2] = test system: mitochondria of SK-OV-3 cells; experiment: Confocal microscopy, colocalisation with MitoTracker Green FM, SK-OV-3 cells; settings: 10 µM conjugate, 10 min at 37 °C
Method: (§5) SK-OV-3 and MCF7 were seeded at a density of 1 × 10^6 cells per well in glass-bottom culture dishes and grown at 37 °C in a 5% CO2 atmosphere in medium supplemented with 10% (v/v) FBS for 24 h. Cells were washed once with the RPMI-1640 medium supplemented with 10% (v/v) FBS before staining. Compounds 1, 5–10 were diluted into the RPMI-1640 medium supplemented with 10% (v/v) FBS to 10 μM and then added to the culture dishes, respectively. After 10-min incubation at 37 °C, cells were washed with RPMI-1640 medium supplemented with 10% (v/v) FBS. Cells were then treated with 50 nM MitoTracker Green FM and 10 μg/mL Hoechst33258 pre-formulated with RPMI-1640 medium supplemented with 10% (v/v) FBS and then incubated for another 10 min at 37 °C before analysis on ZEISS LSM 900 with Airyscan 2. The results were analyzed using Image J software (Figure 3 and Figures S4–S7 in Supplementary Materials).
(§6) Figure 3 Confocal microscopy images of SK-OV-3 and MCF7 cells treated with Cy3-containing conjugates. Cells were treated with 10 µM of the indicated conjugate for 10 min at 37 °C, washed, stained with 50 nM MitoTracker Green FM and 10 μg/mL Hoechst33258 for 10 min at 37 °C, washed, and imaged at 63X. Pearson’s correlation coefficients of MitoTracker Green FM and Cy3 fluorescence for compounds 1, 5, 6, 7, 8, 9, and 10 in SK-OV-3 and MCF cells are 0.75/0.64, 0.73/0.81, 0.91/0.61, 0.78/0.63, 0.85/0.69, 0.43/0.82, and 0.78/0.60, respectively. Excitation wavelengths for Hoechst33258, MitoTracker Green FM and Cy3 were set as 405, 488, and 561 nm, respectively. Scale bars denote 25 μm. Additional images, including the results of Hoechst33258 staining, are shown in Figure S4 (SK-OV-3 at 20X), Figure S5 (SK-OV-3 at 63X), Figure S6 (MCF7 at 20X) and Figure S7 (MCF7 at 63X), Supplementary Materials.

[3] = test system: mitochondria of MCF7 cells; experiment: Confocal microscopy, colocalisation with MitoTracker Green FM, MCF7 cells; settings: 10 µM conjugate, 10 min at 37 °C
Method: as §5, §6

Row | SMILES | EC50 (KB cells) [µM] | EC50 (SK-OV-3 cells) [µM] | EC50 (MCF7 cells) [µM] | EC50 (HEK293 cells) [µM] | EC50 [1] [µM] | Potency (cytotoxicity) in the tested cell lines, in words [1] | EC50 in MCF7 cells, times higher than in the other tested cell lines (MCF7 cells; MCF7 versus KB, SK-OV-3 and HEK293) | Pearson's correlation coefficient of MitoTracker Green and Cy3 fluorescence ([2]; imaged at 20X) | Pearson's correlation coefficient of MitoTracker Green FM and Cy3 fluorescence ([2]; imaged at 63X) | Pearson's correlation coefficient of MitoTracker Green and Cy3 fluorescence ([3]; imaged at 20X) | Pearson's correlation coefficient of MitoTracker Green FM and Cy3 fluorescence ([3]; imaged at 63X) | Selectivity of cytotoxicity between cell lines, in words ([1]; folate receptor α-high KB and SK-OV-3 versus MCF7 and HEK293)
1 | CC(C)C[C@H](NC(=O)[C@H](CCCCN)NC(=O)[C@H](C)NC(=O)[C@H](CC(C)C)NC(=O)[C@H](CCCCN)NC(=O)[C@H](CCCCN)NC(=O)[C@H](C)NC(=O)[C@H](CC(C)C)NC(=O)[C@H](CCCCN)NC(=O)[C@H](C)NC(=O)[C@H](CC(C)C)NC(=O)[C@@H](N)CCCCN)C(=O)N[C@@H](C)C(=O)N[C@@H](CCCCN)C(N)=O [Compound 2, reference compound] | > 400 | > 400 | > 400 | > 400 | > 300 | least potent amongst the tested compounds |  |  |  |  |  | 
2 | CC(C)C[C@@H](NC(=O)[C@H](N)CCCCN)C(=O)N[C@H](C)C(=O)N[C@H](CCCCN)C(=O)N[C@H](CC(C)C)C(=O)N[C@H](C)C(=O)N[C@H](CCCCN)C(=O)N[C@H](CCCCN)C(=O)N[C@H](CC(C)C)C(=O)N[C@H](C)C(=O)N[C@H](CCCCN)C(=O)N[C@H](CC(C)C)C(=O)N[C@H](C)C(=O)N[C@H](CCCCN)C(N)=O [Compound 3, reference compound] | 331 | > 400 | > 400 | > 400 | > 300 | least potent amongst the tested compounds |  |  |  |  |  | 
3 | C[C@@H](NC(=O)[C@H](CC1CCCCC1)NC(=O)[C@@H](CCCCN)NC(=O)[C@@H](C)NC(=O)[C@@H](CC1CCCCC1)NC(=O)[C@H](N)CCCCN)C(=O)N[C@H](CCCCN)C(=O)N[C@H](CCCCN)C(=O)N[C@@H](CC1CCCCC1)C(=O)N[C@H](C)C(=O)N[C@H](CCCCN)C(=O)N[C@H](CC1CCCCC1)C(=O)N[C@H](C)C(=O)N[C@H](CCCCN)C(N)=O [Compound 4, reference compound] (HELM PEPTIDE1{[dK].[O=C([C@@H](CC1CCCCC1)N[*:1])[*:2]].[dA].[dK].[Cha].[dA].[dK].[dK].[Cha].[dA].[dK].[O=C([C@@H](CC1CCCCC1)N[*:1])[*:2]].[dA].[dK].[am]}$$$$V2.0) | 6.5 | 11.6 | 50.9 | 15.6 |  | good potency in all tested cell lines | 3-8 times |  |  |  |  | 
4 | C[C@@H](NC(=O)[C@H](CC1CCCCC1)NC(=O)[C@@H](CCCCN)NC(=O)[C@@H](C)NC(=O)[C@@H](CC1CCCCC1)NC(=O)[C@@H](CCCCN)NC(=O)[C@H](CCCCNC(=O)[C@H](CCC(=O)O)NC(=O)c1ccc(NCc2cnc3nc(N)nc(O)c3n2)cc1)NC(=O)CCCCC[N+]1=C(/C=C/C=C2\N(C)c3ccccc3C2(C)C)C(C)(C)c2ccccc21)C(=O)N[C@H](CCCCN)C(=O)N[C@H](CCCCN)C(=O)N[C@@H](CC1CCCCC1)C(=O)N[C@H](C)C(=O)N[C@H](CCCCN)C(=O)N[C@H](CC1CCCCC1)C(=O)N[C@H](C)C(=O)N[C@H](CCCCN)C(N)=O [Compound 10] (X1-K([Glu-Pteroyl])[dK][dCha][dA][dK][Cha][dA][dK][dK][Cha][dA][dK][dCha][dA][dK]-NH2) | 3.4 | 6 | 6.9 | 6.8 |  |  |  | 0.79 | 0.78 | 0.68 | 0.60 | 
5 | CC(=O)N[C@@H](CCCCNC(=O)[C@H](CCC(=O)O)NC(=O)c1ccc(NCc2cnc3nc(N)nc(O)c3n2)cc1)C(=O)N[C@@H](CCCCN)C(=O)N[C@@H](CC(C)C)C(=O)N[C@@H](C)C(=O)N[C@@H](CCCCN)C(=O)N[C@@H](CC(C)C)C(=O)N[C@@H](C)C(=O)N[C@@H](CCCCN)C(=O)N[C@@H](CCCCN)C(=O)N[C@@H](CC(C)C)C(=O)N[C@@H](C)C(=O)N[C@@H](CCCCN)C(=O)N[C@@H](CC(C)C)C(=O)N[C@@H](C)C(=O)N[C@@H](CCCCN)C(N)=O [Compound 11] | 242 | > 400 | > 400 | > 400 |  |  |  |  |  |  |  | enhanced toxicity in KB but not in SK-OV-3 cells when compared to MCF7 and HEK293 cells
